Experimental data published in PMC11647725, “Discovery of 4-(5-Membered)Heteroarylether-6-methylpicolinamide Negative Allosteric Modulators of Metabotropic Glutamate Receptor Subtype 5” (ACS Medicinal Chemistry Letters, 2024).

Assays:
[1] = molecular target: T1, human mGlu3 (Homo sapiens, UniProt Q14832); test: mGlu selectivity, thallium flux GIRK assay; format: cell-based
T1 construct: expressed in transfected cells
Experimental: (§1) the presence of 5% CO2, the dye solutions were removed and replaced with assay buffer using a microplate washer, leaving 20 μL of assay buffer in the cell plate. The compound, agonist, and cell plates were placed inside the Functional Drug Screening System (FDSS 7000 or uCell, Hamamatsu, Japan) to measure the calcium flux. Assays were run at 37 °C. A triple add protocol was used to measure Ca kinetics. Briefly, after establishment of a fluorescence baseline for 2 seconds (excitation, 480 nm; emission, 530 nm), 20 µL of test compound was added to the cells and the response was measured for 140 seconds. This was followed by the addition of 10 µL (5X) of an EC20 concentration of Glu agonist, and the response of the cells was measured for 125 seconds. A third addition occurred by adding 12 uL (5X) of an EC80 concentration of Glu agonist and the response of the cells was measured for 90 seconds. […] Calcium fluorescence was recorded as fold over basal fluorescence and raw data were normalized to the maximal response to Glu agonist (ECMax). Compound-evoked decreases in calcium response in the presence of Glu EC80 agonist were determined as inhibition activity, and potency (IC50) and maximum inhibition responses (% GluMin) of compounds were determined using a four-parameter logistical equation using GraphPad Prism (La Jolla, CA) or the Dotmatics software platform (Woburn, MA) : […]
(§2) The mGlu subtype selectivity of compounds was determined using calcium mobilization or thallium flux GIRK (G protein-regulated inwardly rectifying K channel) assays using the stable cell lines expressing the respective mGlu receptors. […]
(§3) at RT using DL-AP4 for the agonist. mGlu8 cells were incubated with dye solution for 50 min at 37 °C in the presence of […] and FDSS assays were run at RT. To measure activity at mGlu2 and mGlu3, HEK293-GIRK cells stably expressing human mGlu2 and mGlu3 were assessed using thallium flux assay through GIRK channels as previously described in detail.3 […]

[2] = molecular target: T2, human mGlu2 (Homo sapiens, UniProt Q14416); test: mGlu selectivity, thallium flux GIRK assay; format: cell-based
T2 construct: expressed in transfected cells
Experimental: as §1, §2, §3

[3] = Binding in plasma from rat (equilibrium dialysis); format: in vitro ADME; details: rat, plasma, fraction unbound; equilibrium dialysis; read-out: Rat fu,plasma
Experimental: Binding in plasma from rat and human.
Determination of compounds’ fraction unbound (f u) in plasma from rat and human was conducted in vitro via equilibrium dialysis using HTDialysis membrane plates. Dialysis membranes (four paired strips per HTD assay) were hydrated as described by the manufacturer and inserted into the HTD plate, which was assembled and prepared for sample addition by the dispensing of blank buffer (DPBS, 100 µL/well) into the ‘top half’ of each membrane-split well. Each compound was diluted into plasma from each species (5 µM final concentration), which was aliquoted in triplicate to the ‘bottom half’ of the prepared HTD plate wells. The HTD plate was sealed and incubated for 6 hours at 37 °C. Following incubation, each well (both top and bottom halves) were transferred (20 µL) to the corresponding wells of a 96-shallow-well (V-bottom) plate. The daughter plates were then matrix-matched (buffer side wells received equal volume of plasma, and plasma side wells received equal volume of buffer), and extraction solution (120 µL; acetonitrile containing 50 nM carbamazepine as IS) was added to all wells of both daughter plates to precipitate protein and extract test article. The plates were then sealed and centrifuged (3500 rcf) for 10 minutes at ambient temperature. Supernatant (60 µL) from each well of the daughter plates was then transferred to the corresponding wells of new daughter plates (96-shallow-well, V bottom) containing water (Milli-Q, 60 µL/well), and the plates were sealed in preparation for LC-MS/MS analysis (see below). fu was calculated as (analyte to IS MS peak area ratio from Trans-buffer side) / (analyte to IS MS peak area ratio from Cis-plasma side). Mean values for each species were calculated from 3 replicates. […]
Mean values for each species were calculated from 3 replicates. […]
After 5 minutes (pre-incubation), reactions were initiated by addition of nicotinamide adenine dinucleotide phosphate (NADPH, 1 mM final concentration). At selected time intervals (0, 3, 7, 15, 25, and 45 minutes) post-addition of NADPH, aliquots (50 µL) were taken and placed into a 96-shallow-well plate containing ice cold acetonitrile (150 µL) with carbamazepine (IS, 50 nM). The plates were then centrifuged (3000 rcf at 4 °C) for 10 minutes. The supernatants were transferred to a new 96-shallow-well daughter plate and diluted (1:1 v/v) with water (Milli-Q filtered). The plates were then sealed in preparation for LC-MS/MS analysis (see below).

T1 sequence (Q14832 23-879): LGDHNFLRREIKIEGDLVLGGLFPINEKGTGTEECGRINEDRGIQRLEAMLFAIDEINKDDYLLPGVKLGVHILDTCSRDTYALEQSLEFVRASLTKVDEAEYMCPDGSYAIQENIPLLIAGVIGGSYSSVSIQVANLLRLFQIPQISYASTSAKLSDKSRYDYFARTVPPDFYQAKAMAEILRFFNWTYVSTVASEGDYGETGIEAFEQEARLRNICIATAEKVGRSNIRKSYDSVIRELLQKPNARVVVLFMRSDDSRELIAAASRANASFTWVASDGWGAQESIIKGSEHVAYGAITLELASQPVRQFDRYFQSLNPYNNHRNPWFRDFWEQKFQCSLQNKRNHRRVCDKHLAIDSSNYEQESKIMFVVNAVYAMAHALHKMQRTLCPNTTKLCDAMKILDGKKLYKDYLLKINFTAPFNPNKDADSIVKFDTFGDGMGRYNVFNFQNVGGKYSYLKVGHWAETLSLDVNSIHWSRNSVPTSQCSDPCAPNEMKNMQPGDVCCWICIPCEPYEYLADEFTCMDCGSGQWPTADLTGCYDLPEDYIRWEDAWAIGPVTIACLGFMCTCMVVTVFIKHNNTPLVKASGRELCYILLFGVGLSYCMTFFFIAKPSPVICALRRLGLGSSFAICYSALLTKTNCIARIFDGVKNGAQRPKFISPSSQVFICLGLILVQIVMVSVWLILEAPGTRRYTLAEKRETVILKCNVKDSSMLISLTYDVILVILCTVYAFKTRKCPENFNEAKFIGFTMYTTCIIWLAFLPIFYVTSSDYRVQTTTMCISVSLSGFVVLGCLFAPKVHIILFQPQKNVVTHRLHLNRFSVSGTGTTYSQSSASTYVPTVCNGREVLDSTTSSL
T2 sequence (Q14416 19-872): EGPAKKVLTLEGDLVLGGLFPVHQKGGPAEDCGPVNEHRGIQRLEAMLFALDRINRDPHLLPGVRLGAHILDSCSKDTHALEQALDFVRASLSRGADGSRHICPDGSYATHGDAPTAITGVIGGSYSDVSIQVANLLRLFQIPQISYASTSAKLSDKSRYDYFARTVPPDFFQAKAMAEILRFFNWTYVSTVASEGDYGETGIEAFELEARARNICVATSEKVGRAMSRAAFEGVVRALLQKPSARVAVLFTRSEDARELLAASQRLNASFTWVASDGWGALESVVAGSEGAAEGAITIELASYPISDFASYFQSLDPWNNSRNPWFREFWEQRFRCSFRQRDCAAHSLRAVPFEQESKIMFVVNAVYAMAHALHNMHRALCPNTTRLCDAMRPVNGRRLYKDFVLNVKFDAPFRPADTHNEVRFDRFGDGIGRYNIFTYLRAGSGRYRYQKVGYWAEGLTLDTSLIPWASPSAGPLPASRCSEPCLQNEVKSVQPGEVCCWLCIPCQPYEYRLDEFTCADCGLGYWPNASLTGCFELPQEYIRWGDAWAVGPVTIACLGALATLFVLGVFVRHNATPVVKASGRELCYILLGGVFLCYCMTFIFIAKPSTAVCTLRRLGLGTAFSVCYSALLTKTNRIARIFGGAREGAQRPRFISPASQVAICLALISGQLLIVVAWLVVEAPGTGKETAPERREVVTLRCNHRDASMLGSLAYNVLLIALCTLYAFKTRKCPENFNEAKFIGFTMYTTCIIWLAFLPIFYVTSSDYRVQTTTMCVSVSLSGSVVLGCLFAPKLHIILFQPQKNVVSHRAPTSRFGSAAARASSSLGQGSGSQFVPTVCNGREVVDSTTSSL

What does the source list for `Cc1cc(Oc2cnn(C)c2)cc(C(=O)Nc2ccc(F)cn2)n1` [22iA]?
%GluMin, human mGlu3 [1]: [58] %; IC50 [1]: > 10 µM; IC50, human mGlu2 [2]: inactive; fraction unbound at 6 h, 5 µM [3]: 0.059
